# Experimental data taken from patent US20060046968A1, “Prodrug substituted benzoxazoles as estrogenic agents” (priority 2004, published 2006).
# How the values were obtained:
# Format in all cases: in vivo
# Male HLA-B27 rats [1] = assay: HLA-B27 rat model of arthritis: joint histology; conditions: Study 1; oral 46 days; 10 mg/kg days 1-18, then 20 mg/kg
# Method: At the end of the study, the rats are euthanized with CO2, hindlimbs removed at necropsy and fixed in 10% buffered formalin, and the tarsal joints decalcified and embedded in paraffin. Histologic sections are stained with Hematoxylin and Eosin or […] Green stain. Slides are coded so that the examiner is blinded to the treatment groups. Synovial tissue from tarsal joints is evaluated based on synovial hyperplasia, inflammatory cell infiltration, and pannus formation [Poole and Coombs, International Archives of Allergy & Applied Immunology 54: 97-113 (1977)], as outlined below. [table] […] [table] Representative metabolites of compounds of the invention were evaluated in the HLA-B27 rat standard pharmacological test procedure, which emulates arthritis in humans. The following briefly describes the procedure used and results obtained. Male HLA-B27 rats were obtained from Taconic and provided unrestricted access to a food (PMI® LabDiet 5001) and water. Joint scores and histology were evaluated as described above for the Lewis rat model of adjuvant-induced arthritis. Study 1: […]
# Male HLA-B27 rats [2] = assay: HLA-B27 rat test for inflammatory bowel disease: histological scoring of colon; conditions: Study C
# Method: Representative metabolites of compounds of the invention were evaluated in the HLA rat standard pharmacological test procedure, which emulates inflammatory bowel disease in humans. The following briefly describes the procedure used and results obtained. […] Louis) and water. Stool quality was observed daily and graded according to the following scale: Diarrhea=3; soft stool=2; normal stool=1. At the end of the study, serum was collected and stored at −70° C. A section of colon was prepared for histological analysis and an additional segment was analyzed for myeloperoxidase activity. In Study A, rats (22-26 weeks old) were dosed subcutaneously once per day for seven days with one of the regimens listed below. […] Histological analysis. Colonic tissue was immersed in 10% neutral buffered formalin. Each specimen of colon was separated into four samples for evaluation. The formalin-fixed tissues were processed in a Tissue-Tek® vaccum infiltration processor (Miles, Inc; West Haven, Conn.) for paraffin embedding. The samples were sectioned at 5 μm and then stained with hematoxylin and eosin (H&E) for blinded histological evaluations using a scale modified after Boughton-Smith. After the scores were completed, the samples were unblinded, and data were tabulated and analyzed by ANOVA linear modeling with multiple mean comparisons. Sections of colonic tissue were evaluated for several disease indicators and given relative scores.
# [3] = system: Sexually immature Sprague-Dawley rats; assay: Rat uterotrophic test procedure (Procedure 1); conditions: compound 2 mg/rat + 17α-ethinyl, 17β-estradiol 0.06 μg/rat s.c. (antagonist mode)
# Male HLA-B27 rats [4] = assay: HLA-B27 rat model of arthritis: joint scores; conditions: Study 1, oral 20 mg/kg once per day (10 mg/kg earlier)
# [5] = system: ovariectomized Sprague-Dawley rats; assay: Bone mineral density in the ovariectomized rat (pQCT, proximal tibia); conditions: compound 10 mg/kg s.c.; 5 weeks
# Male HLA-B27 rats [6] = assay: HLA rat test for inflammatory bowel disease: stool character (3 = diarrhea; 2 = soft stool; 1 = normal stool); conditions: Study C
# [7] = system: Sexually immature 129 SvE mice; assay: Mouse uterotrophic test procedure (Procedure 2); conditions: compound 20 mg/kg s.c., days 22-25
# [8] = oral 7 weeks, 10 mg/kg days 1-18, then 20 mg/kg
compound,measurement,setting,value
"Oc1cc(Br)c2oc(-c3ccc(O)c(F)c3)nc2c1 [Example 21, 7-BROMO-2-(3-FLUORO-4-HYDROXYPHENYL)-1,3-BENZOXAZOL-5-OL]",Mankin score (mean ± SD),Male HLA-B27 rats [1],4.6 ± 0.9
same,Synovitis score (mean ± SD),Male HLA-B27 rats [1],6.1 ± 0.75
same,Scores on all disease parameters versus vehicle,Male HLA-B27 rats [2]; oral,"although not statistically significant, were lower than corresponding scores from vehicle-treated rats"
same,"Fibrosis (0-2), mean ± SD",Male HLA-B27 rats [2]; [8],0.56 ± 0.32
same,"Inflammation (0-3), mean ± SD",Male HLA-B27 rats [2]; [8],2.06 ± 0.43
same,"Lesion depth (0-2), mean ± SD",Male HLA-B27 rats [2]; [8],0.75 ± 0.50
same,"Total score, mean ± SD",Male HLA-B27 rats [2]; [8],4.19 ± 1.74
same,"Ulceration (0-2), mean ± SD",Male HLA-B27 rats [2]; [8],0.81 ± 0.47
same,mean uterine weight ± SEM,[3],93.9 ± 5.9 mg
same,Joint inflammation score,Male HLA-B27 rats [4]; Day 29,0.75
same,Joint inflammation score,Male HLA-B27 rats [4]; Day 30,1.75
same,Joint inflammation score,Male HLA-B27 rats [4]; Day 31,1.25
same,Joint inflammation score,Male HLA-B27 rats [4]; Day 32,0.75
same,Joint inflammation score,Male HLA-B27 rats [4]; Day 33,1
same,Joint inflammation score,Male HLA-B27 rats [4]; Day 34,1.25
same,Joint inflammation score,Male HLA-B27 rats [4]; Day 35,2.25
same,Joint inflammation score,Male HLA-B27 rats [4]; Day 36,1
same,Joint inflammation score,Male HLA-B27 rats [4]; Day 37,4
same,Joint inflammation score,Male HLA-B27 rats [4]; Day 38,1.5
same,Joint inflammation score,Male HLA-B27 rats [4]; Day 39,1.5
same,Joint inflammation score,Male HLA-B27 rats [4]; Day 40,2.25
same,Joint inflammation score,Male HLA-B27 rats [4]; Day 41,2.25
same,Joint inflammation score,Male HLA-B27 rats [4]; Day 42,1.5
same,Joint inflammation score,Male HLA-B27 rats [4]; Day 43,1.25
same,Joint inflammation score,Male HLA-B27 rats [4]; Day 44,1
same,Joint inflammation score,Male HLA-B27 rats [4]; Day 45,2.5
same,Joint inflammation score,Male HLA-B27 rats [4]; Day 46,2
same,Total Bone Mineral Density (mean ± SEM),[5],501.40 ± 11.97 mg/mL
same,Trabecular Bone Mineral Density (mean ± SEM),[5],312.34 ± 19.73 mg/mL
same,Stool Character (group's average score),"Male HLA-B27 rats [6]; oral 10 mg/kg once per day, Day 1",2.75
same,Stool Character (group's average score),"Male HLA-B27 rats [6]; oral 10 mg/kg once per day, Day 3",2.75
same,Stool Character (group's average score),"Male HLA-B27 rats [6]; oral 10 mg/kg once per day, Day 4",2.75
same,Stool Character (group's average score),"Male HLA-B27 rats [6]; oral 10 mg/kg once per day, Day 5",2.75
same,Stool Character (group's average score),"Male HLA-B27 rats [6]; oral 10 mg/kg once per day, Day 6",2.5
same,Stool Character (group's average score),"Male HLA-B27 rats [6]; oral 10 mg/kg once per day, Day 7",2.5
same,Stool Character (group's average score),"Male HLA-B27 rats [6]; oral 10 mg/kg once per day, Day 8",2.75
same,Stool Character (group's average score),"Male HLA-B27 rats [6]; oral 10 mg/kg once per day, Day 9",2.5
same,Stool Character (group's average score),"Male HLA-B27 rats [6]; oral 10 mg/kg once per day, Day 10",2.75
same,Stool Character (group's average score),"Male HLA-B27 rats [6]; oral 10 mg/kg once per day, Day 11",2.5
same,Stool Character (group's average score),"Male HLA-B27 rats [6]; oral 10 mg/kg once per day, Day 12",2.5
same,Stool Character (group's average score),"Male HLA-B27 rats [6]; oral 10 mg/kg once per day, Day 13",2.5
same,Stool Character (group's average score),"Male HLA-B27 rats [6]; oral 10 mg/kg once per day, Day 14",2.5
same,Stool Character (group's average score),"Male HLA-B27 rats [6]; oral 10 mg/kg once per day, Day 15",2.5
same,Stool Character (group's average score),"Male HLA-B27 rats [6]; oral 10 mg/kg once per day, Day 16",2.5
same,Stool Character (group's average score),"Male HLA-B27 rats [6]; oral 10 mg/kg once per day, Day 17",2.5
same,Stool Character (group's average score),"Male HLA-B27 rats [6]; oral 10 mg/kg once per day, Day 18",2.5
same,Stool Character (group's average score),"Male HLA-B27 rats [6]; oral 20 mg/kg once per day (10 mg/kg days 1-18), Day 19",2.75
same,Stool Character (group's average score),"Male HLA-B27 rats [6]; oral 20 mg/kg once per day (10 mg/kg days 1-18), Day 20",2.5
same,Stool Character (group's average score),"Male HLA-B27 rats [6]; oral 20 mg/kg once per day (10 mg/kg days 1-18), Day 21",2.75
same,Stool Character (group's average score),"Male HLA-B27 rats [6]; oral 20 mg/kg once per day (10 mg/kg days 1-18), Day 22",2.5
same,Stool Character (group's average score),"Male HLA-B27 rats [6]; oral 20 mg/kg once per day (10 mg/kg days 1-18), Day 23",2.25
same,Stool Character (group's average score),"Male HLA-B27 rats [6]; oral 20 mg/kg once per day (10 mg/kg days 1-18), Day 24",1.75
same,Stool Character (group's average score),"Male HLA-B27 rats [6]; oral 20 mg/kg once per day (10 mg/kg earlier), Day 25",2
same,Stool Character (group's average score),"Male HLA-B27 rats [6]; oral 20 mg/kg once per day (10 mg/kg earlier), Day 26",2
same,Stool Character (group's average score),"Male HLA-B27 rats [6]; oral 20 mg/kg once per day (10 mg/kg earlier), Day 27",2
same,Stool Character (group's average score),"Male HLA-B27 rats [6]; oral 20 mg/kg once per day (10 mg/kg earlier), Day 28",2
same,Stool Character (group's average score),"Male HLA-B27 rats [6]; oral 20 mg/kg once per day (10 mg/kg earlier), Day 29",2
same,Stool Character (group's average score),"Male HLA-B27 rats [6]; oral 20 mg/kg once per day (10 mg/kg earlier), Day 30",2.25
same,Stool Character (group's average score),"Male HLA-B27 rats [6]; oral 20 mg/kg once per day (10 mg/kg earlier), Day 31",2.25
same,Stool Character (group's average score),"Male HLA-B27 rats [6]; oral 20 mg/kg once per day (10 mg/kg earlier), Day 32",2
same,Stool Character (group's average score),"Male HLA-B27 rats [6]; oral 20 mg/kg once per day (10 mg/kg earlier), Day 33",1.5
same,Stool Character (group's average score),"Male HLA-B27 rats [6]; oral 20 mg/kg once per day (10 mg/kg earlier), Day 34",1.75
same,Stool Character (group's average score),"Male HLA-B27 rats [6]; oral 20 mg/kg once per day (10 mg/kg earlier), Day 35",1.5
same,Stool Character (group's average score),"Male HLA-B27 rats [6]; oral 20 mg/kg once per day (10 mg/kg earlier), Day 36",1.75
same,Stool Character (group's average score),"Male HLA-B27 rats [6]; oral 20 mg/kg once per day (10 mg/kg earlier), Day 37",1.5
same,Stool Character (group's average score),"Male HLA-B27 rats [6]; oral 20 mg/kg once per day (10 mg/kg earlier), Day 38",1.5
same,Stool Character (group's average score),"Male HLA-B27 rats [6]; oral 20 mg/kg once per day (10 mg/kg earlier), Day 39",2
same,Stool Character (group's average score),"Male HLA-B27 rats [6]; oral 20 mg/kg once per day (10 mg/kg earlier), Day 40",1.75
same,Stool Character (group's average score),"Male HLA-B27 rats [6]; oral 20 mg/kg once per day (10 mg/kg earlier), Day 41",2
same,Stool Character (group's average score),"Male HLA-B27 rats [6]; oral 20 mg/kg once per day (10 mg/kg earlier), Day 42",2
same,Stool Character (group's average score),"Male HLA-B27 rats [6]; oral 20 mg/kg once per day (10 mg/kg earlier), Day 43",2
same,Stool Character (group's average score),"Male HLA-B27 rats [6]; oral 20 mg/kg once per day (10 mg/kg earlier), Day 44",2
same,Stool Character (group's average score),"Male HLA-B27 rats [6]; oral 20 mg/kg once per day (10 mg/kg earlier), Day 45",2
same,Stool Character (group's average score),"Male HLA-B27 rats [6]; oral 20 mg/kg once per day (10 mg/kg earlier), Day 46",2
same,mean uterine weight ± SEM,[7],12.1 ± 1.7 mg
